Data set [1] has as its system recombinant NL4-3 virus (nef section replaced with Renilla luciferase gene) in MT-2 cells. Briefly: HIV cell culture assay (antiviral activity, luciferase readout). Format: cell-based. The conditions noted are these: Renilla, NL43, Table 1; MT-2 cells infected for 4-5 days with recombinant NL4-3 luciferase virus. The method, boiled down:
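NL4-3 reporter virus carrying Renilla luciferase in place of part of nef, produced in 293T cells, was used to infect MT-2 cells for 4-5 days with serial compound dilutions. Luciferase activity was read with a live-cell substrate; EC50 derived from the median effect equation.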

The nature of data set [2]: Compound cytotoxicity, XTT-based colorimetric assay. To be noted: human, uninfected MT2 cells, Table 1, day 4, XTT. Format: cell-based. The method, boiled down: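 CC50 from uninfected MT2 cells run under the antiviral-assay protocol without virus. Viability read on day 4 by XTT colorimetric assay.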
(In general: Tetrazolium dyes change colour on reduction, which living cells bring about.)

As a reminder, the EC50 is the concentration that produces a half-maximal response. Broadly, the CC50 is the concentration giving 50% cytotoxicity. Low readings indicate greater toxicity to the cells, high ones lower toxicity to the cells. Regarding `NC(=O)c1cc(-c2cc3[nH]ncc3nc2[C@H](Cc2cc(F)cc(F)c2)NC(=O)Cn2nc(C(F)F)c3c2C(F)(F)[C@@H]2C[C@H]32)ccc1F` [Example 10.6, 5-(5-((S)-1-(2-((3bS,4aR)-3-(difluoromethyl)-5,5-difluoro-3b,4,4a,5-tetrahydro-1H-cyclopropa[3,4]cyclopenta[1,2-c]pyrazol-1-yl)acetamido)-2-(3,5-difluorophenyl)ethyl)-1H-pyrazolo[4,3-b]pyridin-6-yl)-2-fluorobenzamide], in data set [1], the 50% effective concentration (EC50) was 16 nM. In addition, in data set [2], the CC50 at 4 days is greater than 10000 nM.
`CNC(=O)c1cc(-c2cc3[nH]ncc3nc2[C@H](Cc2cc(F)cc(F)c2)NC(=O)Cn2nc(C(F)F)c3c2C(F)(F)[C@@H]2C[C@H]32)ccc1F` [Example 10.7, 5-(5-((S)-1-(2-((3bS,4aR)-3-(difluoromethyl)-5,5-difluoro-3b,4,4a,5-tetrahydro-1H-cyclopropa[3,4]cyclopenta[1,2-c]pyrazol-1-yl)acetamido)-2-(3,5-difluorophenyl)ethyl)-1H-pyrazolo[4,3-b]pyridin-6-yl)-2-fluoro-N-methylbenzamide]: the concentration giving a half-maximal response (EC50) in data set [1] was 51 nM. For the same molecule, the CC50 at 4 days in data set [2] was greater than 10000 nM.
The matching figures for `COC(=O)c1cccc(-c2cc3[nH]ncc3nc2[C@H](Cc2cc(F)cc(F)c2)NC(=O)Cn2nc(C(F)F)c3c2C(F)(F)[C@@H]2C[C@H]32)c1` [Example 10.8, Methyl 3-(5-((S)-1-(2-((3bS,4aR)-3-(difluoromethyl)-5,5-difluoro-3b,4,4a,5-tetrahydro-1H-cyclopropa[3,4]cyclopenta[1,2-c]pyrazol-1-yl)acetamido)-2-(3,5-difluorophenyl)ethyl)-1H-pyrazolo[4,3-b]pyridin-6-yl)benzoate]: 1200 nM and greater than 10000 nM.
With `COC(=O)c1cc(-c2cc3[nH]ncc3nc2[C@H](Cc2cc(F)cc(F)c2)NC(=O)Cn2nc(C(F)F)c3c2C(F)(F)[C@@H]2C[C@H]32)ccc1Cl` [Example 10.9, Methyl 2-chloro-5-(5-((S)-1-(2-((3bS,4aR)-3-(difluoromethyl)-5,5-difluoro-3b,4,4a,5-tetrahydro-1H-cyclopropa[3,4]cyclopenta[1,2-c]pyrazol-1-yl)acetamido)-2-(3,5-difluorophenyl)ethyl)-1H-pyrazolo[4,3-b]pyridin-6-yl)benzoate], in data set [1], the EC50 was 1080 nM. The same molecule had a CC50 at 4 days in data set [2] of 8950 nM.
As to `O=C(Cn1nc(C(F)F)c2c1C(F)(F)[C@@H]1C[C@H]21)N[C@@H](Cc1cc(F)cc(F)c1)c1nc2cn[nH]c2cc1-c1cccc(C(=O)O)c1` [Example 10.10, 3-(5-((S)-1-(2-((3bS,4aR)-3-(difluoromethyl)-5,5-difluoro-3b,4,4a,5-tetrahydro-1H-cyclopropa[3,4]cyclopenta[1,2-c]pyrazol-1-yl)acetamido)-2-(3,5-difluorophenyl)ethyl)-1H-pyrazolo[4,3-b]pyridin-6-yl)benzoic acid], in data set [1], the half-maximal effective concentration (EC50) worked out at 140 nM. In data set [2], this molecule registered a CC50 at 4 days greater than 10000 nM.
As for `O=C(Cn1nc(C(F)F)c2c1C(F)(F)[C@@H]1C[C@H]21)N[C@@H](Cc1cc(F)cc(F)c1)c1nc2cn[nH]c2cc1-c1ccc(Cl)c(C(=O)O)c1` [Example 10.11, 2-Chloro-5-(5-((S)-1-(2-((3bS,4aR)-3-(difluoromethyl)-5,5-difluoro-3b,4,4a,5-tetrahydro-1H-cyclopropa[3,4]cyclopenta[1,2-c]pyrazol-1-yl)acetamido)-2-(3,5-difluorophenyl)ethyl)-1H-pyrazolo[4,3-b]pyridin-6-yl)benzoic acid], the EC50 in data set [1] was found to be 810 nM. For the same molecule, in data set [2], the CC50 at 4 days was greater than 10000 nM.
Regarding `O=C(Cn1nc(C(F)F)c2c1C(F)(F)[C@@H]1C[C@H]21)N[C@@H](Cc1cc(F)cc(F)c1)c1nc2cn[nH]c2cc1-c1ccc2c(c1)CNC2=O` [Example 10.12, 2-((3bS,4aR)-3-(difluoromethyl)-5,5-difluoro-3b,4,4a,5-tetrahydro-1H-cyclopropa[3,4]cyclopenta[1,2-c]pyrazol-1-yl)-N—((S)-2-(3,5-difluorophenyl)-1-(6-(1-oxoisoindolin-5-yl)-1H-pyrazolo[4,3-b]pyridin-5-yl)ethyl)acetamide], the half-maximal effective concentration (EC50) in data set [1] was 95 nM. The 50% cytotoxic concentration (CC50) at 4 days in data set [2] was greater than 10000 nM.
On to `O=C(Cn1nc(C(F)F)c2c1C(F)(F)[C@@H]1C[C@H]21)N[C@@H](Cc1cc(F)cc(F)c1)c1nc2cn[nH]c2cc1-c1cccc2c1CNC2=O` [Example 10.13, 2-((3bS,4aR)-3-(difluoromethyl)-5,5-difluoro-3b,4,4a,5-tetrahydro-1H-cyclopropa[3,4]cyclopenta[1,2-c]pyrazol-1-yl)-N—((S)-2-(3,5-difluorophenyl)-1-(6-(1-oxoisoindolin-4-yl)-1H-pyrazolo[4,3-b]pyridin-5-yl)ethyl)acetamide], for which the concentration for a half-maximal effect (EC50) in data set [1] was found to be 12 nM. In data set [2], this molecule gave a 50% cytotoxic concentration (CC50) at 4 days greater than 10000 nM.
Regarding `O=C(Cn1nc(C(F)F)c2c1C(F)(F)[C@@H]1C[C@H]21)N[C@@H](Cc1cc(F)cc(F)c1)c1nc2cn[nH]c2cc1-c1ccc2c(c1)C(=O)NC2` [Example 10.14, 2-((3bS,4aR)-3-(difluoromethyl)-5,5-difluoro-3b,4,4a,5-tetrahydro-1H-cyclopropa[3,4]cyclopenta[1,2-c]pyrazol-1-yl)-N—((S)-2-(3,5-difluorophenyl)-1-(6-(3-oxoisoindolin-5-yl)-1H-pyrazolo[4,3-b]pyridin-5-yl)ethyl)acetamide], the EC50 in data set [1] amounted to 2.5 nM. For the same molecule, in data set [2], the CC50 at 4 days is greater than 10000 nM.
The matching figures for `N#Cc1cc(-c2cc3[nH]ncc3nc2[C@H](Cc2cc(F)cc(F)c2)NC(=O)Cn2nc(C(F)F)c3c2C(F)(F)[C@@H]2C[C@H]32)ccc1Cl` [Example 10.15, N—((S)-1-(6-(4-chloro-3-cyanophenyl)-1H-pyrazolo[4,3-b]pyridin-5-yl)-2-(3,5-difluorophenyl)ethyl)-2-((3bS,4aR)-3-(difluoromethyl)-5,5-difluoro-3b,4,4a,5-tetrahydro-1H-cyclopropa[3,4]cyclopenta[1,2-c]pyrazol-1-yl)acetamide]: 1170 nM and 5500 nM.
`O=C(Cn1nc(C(F)F)c2c1C(F)(F)[C@@H]1C[C@H]21)N[C@@H](Cc1cc(F)cc(F)c1)c1nc2cn[nH]c2cc1-c1ccc(Cl)c(C(=O)NS(=O)(=O)C2CC2)c1` [Example 10.16, 2-Chloro-N-(cyclopropylsulfonyl)-5-(5-((S)-1-(2-((3bS,4aR)-3-(difluoromethyl)-5,5-difluoro-3b,4,4a,5-tetrahydro-1H-cyclopropa[3,4]cyclopenta[1,2-c]pyrazol-1-yl)acetamido)-2-(3,5-difluorophenyl)ethyl)-1H-pyrazolo[4,3-b]pyridin-6-yl)benzamide]: the concentration for a half-maximal effect (EC50) in data set [1] worked out at 340 nM. The same molecule gave a CC50 at 4 days in data set [2] greater than 10000 nM.
`Cn1nc(NS(C)(=O)=O)c2c(Cl)ccc(-c3cc4ccccc4nc3[C@H](Cc3cc(F)cc(F)c3)NC(=O)Cc3c[nH]c4ccc(O)cc34)c21` [Example 10.17]: the EC50 in data set [1] was determined as 2.4 nM. In data set [2], this molecule came in with a cytotoxic concentration (CC50) at 4 days greater than 10000 nM.
Take `CS(=O)(=O)NC(=O)c1cc(-c2cc3[nH]ncc3nc2[C@H](Cc2cc(F)cc(F)c2)NC(=O)Cn2nc(C(F)F)c3c2C(F)(F)[C@@H]2C[C@H]32)ccc1Cl` [Example 10.18, 2-Chloro-5-(5-((S)-1-(2-((3bS,4aR)-3-(difluoromethyl)-5,5-difluoro-3b,4,4a,5-tetrahydro-1H-cyclopropa[3,4]cyclopenta[1,2-c]pyrazol-1-yl)acetamido)-2-(3,5-difluorophenyl)ethyl)-1H-pyrazolo[4,3-b]pyridin-6-yl)-N-(methylsulfonyl)benzamide]: the EC50 in data set [1] was 670 nM. The molecule further had a CC50 at 4 days in data set [2] greater than 10000 nM.

The record behind these values is patent US10954252B1, “Inhibitors of human immunodeficiency virus replication” (ViiV HEALTHCARE UK (NO.5) LIMITED, priority 2017, dated 2021).
